Literature values in patent publication US11660375B2, “Product and method for the treatment of bioprosthetic tissues” (Epygon, priority 2017, dated 2023).
Read-outs that look alike come from different tables or passages of the source. Each block holds one compound with its values, some of them ahead of it.

Experiments:
[1] = test system: porcine aortic valve cusps; settings: rat subdermal, 60 days, pretreatment pH 7.4 for 24 hours
[2] = test system: Porcine aortic valve bioprostheses; settings: sheep, 150 days, leaflet calcium
[3] = test system: pericardium samples pretreated with 0.6% Glutaraldehyde; settings: after 6 months implantation, juvenile rats, subcutaneous
[4] = oral administration; IPCS, WHO Food Additives Series 32
[5] = at 25° C.

Compound: 2-hydroxypropyl β-Cyclodextrin [HP p-CD]
toxicity on parenteral administration: don't show any toxicity
toxicity on parenteral administration (listed as 2-hydroxypropyl β-Cyclodextrin): appear to be safe

Compound: CCO [60% Ethanol, Ethanol]
calcium level ([1]; listed as 60.0% Ethanol): 28.5±12.0 μg/mg tissue

Compound: CCO [80% Ethanol, Ethanol]
calcium level ([1]; listed as 80.0% Ethanol): 1.87±0.29 μg/mg tissue
Ca [2]: 5.22 ± 2.94

Compound: CCO [Ethanol]
Ca (porcine aortic cusps): 13.3+/−5.6 μg/mg tissue

Compound: OC[C@H]1O[C@H](O[C@H]2[C@H](O)[C@@H](O)[C@@H](OC[C@H]3O[C@@H]4O[C@H]5[C@H](O)[C@@H](O)[C@@H](O[C@H]6[C@H](O)[C@@H](O)[C@@H](O[C@H]7[C@H](O)[C@@H](O)C(O[C@H]8[C@H](O)[C@@H](O)[C@@H](O[C@H]9[C@H](O)[C@@H](O)[C@@H](O[C@H]%10[C@H](O)[C@@H](O)[C@@H](O[C@H]3[C@H](O)[C@H]4O)O[C@@H]%10CO)O[C@@H]9CO)O[C@@H]8CO)O[C@@H]7CO)O[C@@H]6CO)O[C@@H]5CO)O[C@@H]2CO)[C@H](O)[C@@H](O)[C@@H]1O [Maltosyl β-Cyclodextrin]
toxicity on parenteral administration: appear to be safe

Compound: CCCCCCCC/C=C\CCCCCCCC(=O)OCCOCC(OCCO)C1OCC(OCCO)C1OCCO (stereo not drawn) [surfactant, Tween 80]
calcium content [3]: 42.9±12.7 μg/mg dry tissue

Compound: OC[C@H]1O[C@@H]2O[C@H]3[C@H](O)[C@@H](O)[C@@H](O[C@H]4[C@H](O)[C@@H](O)[C@@H](O[C@H]5[C@H](O)[C@@H](O)[C@@H](O[C@H]6[C@H](O)[C@@H](O)[C@@H](O[C@H]7[C@H](O)[C@@H](O)[C@@H](O[C@H]1[C@H](O)[C@H]2O)O[C@@H]7CO)O[C@@H]6CO)O[C@@H]5CO)O[C@@H]4CO)O[C@@H]3CO [α-Cyclodextrins, α-Cyclodextrin]
toxicity on parenteral administration: don't show any toxicity

acceptable daily intake [4]: 5 mg/kg of body weight
Compound: OC[C@H]1O[C@@H]2O[C@H]3[C@H](O)[C@@H](O)[C@@H](O[C@H]4[C@H](O)[C@@H](O)[C@@H](O[C@H]5[C@H](O)[C@@H](O)[C@@H](O[C@H]6[C@H](O)[C@@H](O)[C@@H](O[C@H]7[C@H](O)[C@@H](O)[C@@H](O[C@H]8[C@H](O)[C@@H](O)[C@@H](O[C@H]1[C@H](O)[C@H]2O)O[C@@H]8CO)O[C@@H]7CO)O[C@@H]6CO)O[C@@H]5CO)O[C@@H]4CO)O[C@@H]3CO [β-Cyclodextrin]
toxicity on parenteral administration: nephrotoxic

Compound: OC[C@H]1O[C@@H]2O[C@H]3[C@H](O)[C@@H](O)[C@@H](O[C@H]4[C@H](O)[C@@H](O)[C@@H](O[C@H]5[C@H](O)[C@@H](O)[C@@H](O[C@H]6[C@H](O)[C@@H](O)[C@@H](O[C@H]7[C@H](O)[C@@H](O)[C@@H](O[C@H]8[C@H](O)[C@@H](O)[C@@H](O[C@H]9[C@H](O)[C@@H](O)[C@@H](O[C@H]1[C@H](O)[C@H]2O)O[C@@H]9CO)O[C@@H]8CO)O[C@@H]7CO)O[C@@H]6CO)O[C@@H]5CO)O[C@@H]4CO)O[C@@H]3CO [γ-Cyclodextrin]
toxicity on parenteral administration: appear to be safe

water solubility [5]: ~70 g/100 ml
Compound: Sulfobutyl Ether7 β-Cyclodextrin [SBE7 β-CD]
toxicity on parenteral administration: appear to be safe

Compound: Sulphated β-Cyclodextrin
toxicity on parenteral administration: appear to be safe
